The results in this text go back to ChEMBL document CHEMBL5120873, “Discovery of novel benzimidazole derivatives as potent p300 bromodomain inhibitors with anti-proliferative activity in multiple cancer cells” (Bioorg Med Chem, 2022).

The source made the active and inactive calls. No cut-off for these calls is given here.

Assay [1] concerns the target T1, Histone acetyltransferase p300 (Homo sapiens, UniProt Q09472). The experiment in a line: Binding affinity to recombinant EP300 bromodomain (unknown origin) assessed as change in melting temperature by differential scanning fluorimetry method.
In assay [2] the test system is OPM-2. Nature of the assay: Antiproliferative activity against human OPM-2 cells incubated for 5 days by CCK-8 method. Type of assay: functional, cell-based. The following applies: OPM-2, 120 h.
Assay [3] addresses T2, CREB-binding protein/Histone acetyltransferase p300 (Homo sapiens) (UniProt Q09472+Q92793). Nature of the assay: Inhibition of EP300/CBP bromodomain in human OPM-2 cells assessed as suppression of c-myc expression at <= 1 uM incubated for 3 days by Western blot analysis. As to conditions: time 3.0 day. Type of assay: cell-based. Background: A western blot detects proteins with antibodies after separation by electrophoresis.

A further assay has as its system CWR22R. The experiment in a line: Antiproliferative activity against human 22Rv1 cells incubated for 5 days by CCK-8 method. Type of assay: functional, cell-based. As to conditions: 22Rv1, 120 h. A general note: Formazan colour is commonly taken as a measure of viable cells.
Assay [4] deals with OPM-2. The experiment in a line: Induction of cell cycle arrest in human OPM-2 cells assessed as accumulation of cells at G1/G0 phase at 5 uM incubated for 48 hrs by PI staining based flow cytometry analysis (reference value: 34.25 %). Type of assay: functional. In general terms: In flow cytometry, cells or beads pass a laser one at a time.
For assay [5], the system named is OPM-2. Nature of the assay: Induction of apoptosis in human OPM-2 cells assessed as apoptotic cells at 3 uM incubated for 72 hrs by annexin V-FITC/PI staining based flow cytometry analysis. The class given is functional.
The target of assay [6] is T2, CREB-binding protein/Histone acetyltransferase p300 (Homo sapiens). The experiment in a line: Inhibition of EP300/CBP bromodomain in human 22Rv1 cells assessed as suppression of c-myc expression at 0.8 to 5 uM incubated for 3 days by Western blot analysis. Type of assay: cell-based. The following applies: dose 0.8-5 µM, time 3.0 day.
A further assay relates to SCC-9. The experiment in a line: Antiproliferative activity against human SCC-9 cells incubated for 5 days by CCK-8 method. Type of assay: functional, cell-based. As to conditions: SCC-9, 120 h.
The next assay has as its system MCF7. Nature of the assay: Antiproliferative activity against human MCF7 cells incubated for 5 days by CCK-8 method. The class given is functional, cell-based. The following applies: MCF7, 120 h.
Assay [7] deals with T2, CREB-binding protein/Histone acetyltransferase p300 (Homo sapiens). The experiment in a line: Inhibition of EP300/CBP bromodomain in human SCC-9 cells assessed as suppression of c-myc expression at 0.8 to 5 uM incubated for 3 days by Western blot analysis. Type of assay: cell-based. As to conditions: dose 0.8-5 µM, time 3.0 day.
The target in assay [8] is T1, Histone acetyltransferase p300. Nature of the assay: Inhibition of EP300 bromodomain (unknown origin) incubated for 20 mins by AlphaLISA method.
Assay [9] deals with T2, CREB-binding protein/Histone acetyltransferase p300 (Homo sapiens). Nature of the assay: Inhibition of EP300/CBP bromodomain in human OPM-2 cells assessed as suppression of c-myc expression incubated for 3 days by Western blot analysis. The following applies: dose 0.8-5 µM, time 3.0 day, DDE = dose-dependent effect. Type of assay: cell-based.

A word on the ΔTm: it is the shift of the melting midpoint relative to a reference. A word on the IC50: it is the concentration needed to halve the response being measured. The low end stands for greater potency, the high end for weaker potency.

T2 sequence (Q09472 whole entry, looked up): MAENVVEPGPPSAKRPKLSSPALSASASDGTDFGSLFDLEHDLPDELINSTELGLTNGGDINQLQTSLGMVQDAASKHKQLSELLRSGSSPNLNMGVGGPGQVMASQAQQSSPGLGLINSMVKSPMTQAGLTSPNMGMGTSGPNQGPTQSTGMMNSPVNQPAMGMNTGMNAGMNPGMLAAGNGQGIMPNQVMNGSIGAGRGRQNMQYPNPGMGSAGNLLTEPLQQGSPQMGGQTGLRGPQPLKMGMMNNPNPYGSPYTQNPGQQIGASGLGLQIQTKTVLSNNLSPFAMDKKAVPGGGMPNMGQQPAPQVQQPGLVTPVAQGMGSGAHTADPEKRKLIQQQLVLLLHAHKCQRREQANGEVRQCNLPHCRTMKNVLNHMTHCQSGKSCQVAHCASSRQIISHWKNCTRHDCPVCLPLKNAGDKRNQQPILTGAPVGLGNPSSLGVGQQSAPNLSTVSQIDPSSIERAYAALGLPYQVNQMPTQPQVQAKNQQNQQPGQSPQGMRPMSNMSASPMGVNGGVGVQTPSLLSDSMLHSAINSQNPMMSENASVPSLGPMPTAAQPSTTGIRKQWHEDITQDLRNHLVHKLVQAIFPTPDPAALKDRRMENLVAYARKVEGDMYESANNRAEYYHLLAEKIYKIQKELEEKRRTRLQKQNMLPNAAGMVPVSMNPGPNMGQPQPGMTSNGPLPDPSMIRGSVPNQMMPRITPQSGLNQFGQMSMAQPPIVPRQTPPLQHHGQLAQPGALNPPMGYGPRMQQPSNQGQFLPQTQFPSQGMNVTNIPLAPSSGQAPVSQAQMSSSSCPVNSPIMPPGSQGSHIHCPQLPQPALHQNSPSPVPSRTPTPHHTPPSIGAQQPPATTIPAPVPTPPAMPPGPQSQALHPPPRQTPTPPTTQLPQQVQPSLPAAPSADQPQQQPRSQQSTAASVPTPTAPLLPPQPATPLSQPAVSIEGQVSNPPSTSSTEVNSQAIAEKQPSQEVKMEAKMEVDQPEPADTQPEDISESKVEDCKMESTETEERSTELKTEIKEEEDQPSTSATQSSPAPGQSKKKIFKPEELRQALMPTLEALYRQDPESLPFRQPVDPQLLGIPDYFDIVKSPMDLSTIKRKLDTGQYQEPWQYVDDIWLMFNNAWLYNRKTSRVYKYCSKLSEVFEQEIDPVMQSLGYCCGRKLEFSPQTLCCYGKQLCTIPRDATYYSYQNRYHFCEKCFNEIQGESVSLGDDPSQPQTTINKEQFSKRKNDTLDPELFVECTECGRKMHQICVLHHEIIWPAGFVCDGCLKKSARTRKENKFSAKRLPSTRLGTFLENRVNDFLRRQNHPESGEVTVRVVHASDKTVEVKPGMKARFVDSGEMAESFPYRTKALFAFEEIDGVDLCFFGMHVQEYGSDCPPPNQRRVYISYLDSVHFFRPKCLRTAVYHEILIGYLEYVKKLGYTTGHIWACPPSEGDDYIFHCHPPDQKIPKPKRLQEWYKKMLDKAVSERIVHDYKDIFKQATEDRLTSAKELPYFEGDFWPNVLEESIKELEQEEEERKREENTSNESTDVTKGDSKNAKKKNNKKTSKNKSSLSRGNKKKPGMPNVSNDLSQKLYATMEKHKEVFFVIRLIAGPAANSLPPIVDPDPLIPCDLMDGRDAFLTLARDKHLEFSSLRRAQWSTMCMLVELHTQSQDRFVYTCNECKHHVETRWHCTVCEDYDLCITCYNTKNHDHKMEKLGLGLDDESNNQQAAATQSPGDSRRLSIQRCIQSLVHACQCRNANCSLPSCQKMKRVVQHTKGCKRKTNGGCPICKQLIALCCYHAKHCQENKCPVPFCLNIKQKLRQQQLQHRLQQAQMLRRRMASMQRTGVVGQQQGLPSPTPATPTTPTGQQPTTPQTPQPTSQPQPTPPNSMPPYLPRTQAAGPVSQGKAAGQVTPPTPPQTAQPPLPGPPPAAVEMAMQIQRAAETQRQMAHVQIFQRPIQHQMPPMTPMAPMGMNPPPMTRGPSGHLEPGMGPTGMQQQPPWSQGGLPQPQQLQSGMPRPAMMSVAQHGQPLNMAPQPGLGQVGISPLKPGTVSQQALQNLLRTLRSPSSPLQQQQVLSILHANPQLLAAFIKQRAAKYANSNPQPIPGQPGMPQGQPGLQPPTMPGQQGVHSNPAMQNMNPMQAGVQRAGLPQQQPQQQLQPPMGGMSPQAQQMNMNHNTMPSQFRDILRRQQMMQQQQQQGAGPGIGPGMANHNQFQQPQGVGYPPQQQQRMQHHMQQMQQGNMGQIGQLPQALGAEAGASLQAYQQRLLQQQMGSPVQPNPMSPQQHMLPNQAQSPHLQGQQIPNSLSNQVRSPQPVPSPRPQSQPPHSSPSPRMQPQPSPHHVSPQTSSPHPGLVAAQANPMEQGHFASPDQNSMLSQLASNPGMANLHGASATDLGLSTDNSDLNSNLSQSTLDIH
T2 sequence (Q92793 whole entry, looked up): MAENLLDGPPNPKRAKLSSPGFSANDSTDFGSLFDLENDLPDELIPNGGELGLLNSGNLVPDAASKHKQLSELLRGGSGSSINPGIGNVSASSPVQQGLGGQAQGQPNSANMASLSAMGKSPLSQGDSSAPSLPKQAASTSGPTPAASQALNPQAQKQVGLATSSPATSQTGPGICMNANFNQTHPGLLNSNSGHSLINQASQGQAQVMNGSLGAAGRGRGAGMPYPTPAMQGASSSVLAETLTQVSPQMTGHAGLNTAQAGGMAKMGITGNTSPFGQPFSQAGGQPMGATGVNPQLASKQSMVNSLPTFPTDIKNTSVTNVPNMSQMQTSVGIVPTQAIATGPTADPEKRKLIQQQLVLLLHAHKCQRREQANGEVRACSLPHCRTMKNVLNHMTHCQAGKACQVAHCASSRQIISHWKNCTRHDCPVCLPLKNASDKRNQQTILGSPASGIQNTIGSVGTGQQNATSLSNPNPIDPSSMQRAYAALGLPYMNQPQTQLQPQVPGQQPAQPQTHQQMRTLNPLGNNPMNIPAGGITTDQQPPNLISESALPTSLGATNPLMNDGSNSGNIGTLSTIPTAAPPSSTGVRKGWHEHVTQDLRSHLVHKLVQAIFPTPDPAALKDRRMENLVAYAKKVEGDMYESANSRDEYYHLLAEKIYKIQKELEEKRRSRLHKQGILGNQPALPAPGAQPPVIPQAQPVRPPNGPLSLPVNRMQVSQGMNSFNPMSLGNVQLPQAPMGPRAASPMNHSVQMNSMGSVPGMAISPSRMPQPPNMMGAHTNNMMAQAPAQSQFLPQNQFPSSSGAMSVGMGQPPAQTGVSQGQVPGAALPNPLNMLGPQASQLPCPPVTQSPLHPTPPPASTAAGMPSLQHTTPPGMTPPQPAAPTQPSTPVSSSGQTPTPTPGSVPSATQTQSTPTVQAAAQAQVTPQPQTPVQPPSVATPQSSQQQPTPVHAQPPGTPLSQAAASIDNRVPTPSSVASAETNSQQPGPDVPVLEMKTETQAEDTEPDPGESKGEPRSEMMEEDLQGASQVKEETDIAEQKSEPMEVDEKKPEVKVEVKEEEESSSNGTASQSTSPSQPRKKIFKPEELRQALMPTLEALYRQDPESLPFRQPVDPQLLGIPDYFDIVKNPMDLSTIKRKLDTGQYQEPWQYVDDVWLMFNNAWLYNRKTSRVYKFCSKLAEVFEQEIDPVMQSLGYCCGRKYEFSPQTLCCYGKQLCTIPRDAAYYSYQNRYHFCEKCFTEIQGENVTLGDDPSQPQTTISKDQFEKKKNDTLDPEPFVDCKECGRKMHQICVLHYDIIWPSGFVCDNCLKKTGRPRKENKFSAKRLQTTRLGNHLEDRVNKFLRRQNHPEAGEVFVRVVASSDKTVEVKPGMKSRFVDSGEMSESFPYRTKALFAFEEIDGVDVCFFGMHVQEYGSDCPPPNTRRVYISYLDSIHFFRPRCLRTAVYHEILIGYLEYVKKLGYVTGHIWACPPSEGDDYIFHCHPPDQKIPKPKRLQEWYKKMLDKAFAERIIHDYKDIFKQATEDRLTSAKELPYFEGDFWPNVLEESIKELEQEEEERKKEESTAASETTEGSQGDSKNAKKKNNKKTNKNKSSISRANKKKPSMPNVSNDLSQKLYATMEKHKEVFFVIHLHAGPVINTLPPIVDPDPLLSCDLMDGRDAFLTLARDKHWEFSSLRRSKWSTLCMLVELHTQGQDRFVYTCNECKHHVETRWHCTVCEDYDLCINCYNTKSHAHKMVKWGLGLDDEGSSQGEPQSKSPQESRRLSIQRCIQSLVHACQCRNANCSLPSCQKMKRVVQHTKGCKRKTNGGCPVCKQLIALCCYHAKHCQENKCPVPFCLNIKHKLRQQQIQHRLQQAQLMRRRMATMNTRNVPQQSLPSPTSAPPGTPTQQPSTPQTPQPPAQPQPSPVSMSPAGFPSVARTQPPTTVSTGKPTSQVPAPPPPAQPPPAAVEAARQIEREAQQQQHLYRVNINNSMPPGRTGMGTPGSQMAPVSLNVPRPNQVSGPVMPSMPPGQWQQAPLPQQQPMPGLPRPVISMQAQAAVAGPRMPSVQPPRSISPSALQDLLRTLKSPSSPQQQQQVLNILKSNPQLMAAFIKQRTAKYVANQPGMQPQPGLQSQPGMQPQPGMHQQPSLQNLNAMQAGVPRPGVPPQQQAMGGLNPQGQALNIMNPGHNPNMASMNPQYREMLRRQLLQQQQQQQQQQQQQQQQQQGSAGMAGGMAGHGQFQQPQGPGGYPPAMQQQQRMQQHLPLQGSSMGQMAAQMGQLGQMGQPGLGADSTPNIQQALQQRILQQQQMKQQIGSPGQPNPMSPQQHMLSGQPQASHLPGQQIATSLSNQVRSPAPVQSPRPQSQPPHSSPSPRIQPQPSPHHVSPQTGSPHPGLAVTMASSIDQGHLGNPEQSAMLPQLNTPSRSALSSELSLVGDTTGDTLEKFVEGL
T1 sequence (Q09472 whole entry): as the sequence (Q09472 whole entry, looked up) above

As for `COc1ccc(CCc2nc3cc(S(C)(=O)=O)ccc3n2C[C@H](C)N2CCOCC2)cc1Cl`, the shift in melting temperature (ΔTm) in [1] came to 1.07 °C.
In the case of `COc1ccc(N2C(=O)C[C@H]2c2nc3cc(-c4c(C)noc4C)ccc3n2[C@H]2CC[C@H](OC)CC2)cc1Cl`, the IC50 with OPM-2 [2] amounted to 1090 nM; in the assay with CWR22R, 3740 nM; in the assay on SCC-9, 1850 nM; in the assay with MCF7 it was 960 nM; in assay [8] it was 49 nM. In addition, the outcome in assay [3], in [6] and in assay [7] was Active. Further, the Activity with OPM-2 [4] worked out at 90%; in the assay with OPM-2 [5], 38.27%.
In the case of `COc1ccc(CCc2nc3cc(-c4cnn(C)c4)ccc3n2C[C@H](C)N2CCOCC2)cc1Cl`, the ΔTm in [1] was 2.95 °C.
For `COc1ccc(CCc2nc3cc(C4(C)COC4)ccc3n2C[C@H](C)N2CCOCC2)cc1Cl`, the ΔTm in assay [1] turned out to be 2.21 °C.
Take `CNC(=O)c1ccc2c(c1)nc(CCc1ccc(OC)c(Cl)c1)n2C[C@H](C)N1CCOCC1`: the ΔTm in assay [1] stood at 2.1 °C.
Take `COc1ccc(N2C(=O)C[C@@H]2c2nc3cc(-c4c(C)noc4C)ccc3n2[C@H]2CC[C@H](OC)CC2)cc1Cl`: the IC50 in the assay on OPM-2 [2] came to 1540 nM; with CWR22R, 3680 nM; with SCC-9 it was 3170 nM; with MCF7 it was 1990 nM; in assay [8], 81 nM. Also, the Activity result in assay [9] was “Dde”.
As for `COc1ccc(CCc2nc3cc(-c4c(C)noc4C)ccc3n2C2CCN(C(C)=O)CC2)cc1Cl`, the IC50 in assay [8] amounted to 94 nM.
Compound `COc1ccc(CCc2nc3cc(-c4c(C)noc4C)ccc3n2C2CC(C)(C)OC(C)(C)C2)cc1Cl` displayed an IC50 in assay [8] of 112 nM.
For `COc1ccc(CCc2nc3cc(-c4c(C)noc4C)ccc3n2[C@H]2CC[C@H](C(F)(F)F)CC2)cc1Cl`, the IC50 in assay [8] is 894 nM.
As for `CNC(=O)Nc1ccc2c(c1)nc(CCc1ccc(OC)c(Cl)c1)n2C[C@H](C)N1CCOCC1`, in [1], the ΔTm came out at 3.53 °C.
Consider `COc1ccc(CCc2nc3cc(CC#N)ccc3n2C[C@H](C)N2CCOCC2)cc1Cl`, for which the ΔTm in assay [1] worked out at 1.44 °C.
In assay [8], `Cc1noc(C)c1-c1ccc2c(c1)nc(C1CC1c1ccccc1)n2[C@H]1CC[C@H](O)CC1` (stereo partly drawn) gave an IC50 of 263 nM.
Consider `COc1ccc(CCc2nc3cc(-c4c(C)noc4C)ccc3n2[C@H]2CC[C@H](OC)CC2)cc1Cl`, for which the IC50 is 2290 nM in the assay with OPM-2 [2]; over 10000 nM with CWR22R; 2550 nM in the assay with SCC-9; 5650 nM in the assay on MCF7; 97 nM in [8]. In addition, the Activity result in [9] was “Dde”.
Compound `COc1ccc(CCc2nc3cc(-c4c(C)noc4C)ccc3n2[C@H]2C[C@H](O)C2)cc1Cl` came in with an IC50 in assay [8] of 155 nM.
For `COc1ccc(CCc2nc3cc(-c4c(C)noc4C)ccc3n2C[C@H](C)N2CCOCC2)cc1Cl`, the concentration for half-maximal inhibition (IC50) is 2640 nM in the assay with OPM-2 [2], over 10000 nM with CWR22R, 6420 nM in the assay on SCC-9 and 2390 nM with MCF7. In addition, the ΔTm in assay [1] amounted to 4.5 °C.
With `COc1ccc(CCc2nc3cc(-c4cnn(C)n4)ccc3n2C[C@H](C)N2CCOCC2)cc1Cl`, the thermal shift (ΔTm) in assay [1] is 4.34 °C.
In assay [8], `COc1ccc(CCc2nc3cc(-c4c(C)noc4C)ccc3n2C2CCC(F)(F)CC2)cc1Cl` gave an IC50 of 83 nM.
As to `COc1ccc(CCc2nc3cc(-c4c(C)noc4C)ccc3n2[C@H]2CC[C@H](O)CC2)cc1Cl`, the IC50 with OPM-2 [2] turned out to be 1390 nM; with CWR22R, 6830 nM; in the assay with SCC-9 it was 3680 nM; with MCF7 it was 2820 nM; in [8] it was 48 nM. The outcome in assay [3] was Active. Also, the Activity is given as 90% in the assay with OPM-2 [4] and 28.49% in the assay with OPM-2 [5].
With `COc1ccc2c(Cc3nc4cc(-c5c(C)noc5C)ccc4n3[C@H]3CC[C@H](O)CC3)cc(=O)oc2c1`, the IC50 in assay [8] is 48 nM.
Take `COc1ccc(CCc2nc3cc(C(C)=O)ccc3n2C[C@H](C)N2CCOCC2)cc1Cl`: the thermal shift (ΔTm) in assay [1] worked out at 4.1 °C.
`COc1ccc(CCc2nc3cc(NC(C)=O)ccc3n2C[C@H](C)N2CCOCC2)cc1Cl`: in assay [1], the ΔTm is 2.97 °C.
With `COc1ccc(CCc2nc3cc(-c4c(C)noc4C)ccc3n2C2CCN(S(C)(=O)=O)CC2)cc1Cl`, in assay [8], the midpoint of inhibition, the IC50, lay at 148 nM.
Take `COc1ccc(CCc2nc3cc(NS(C)(=O)=O)ccc3n2C[C@H](C)N2CCOCC2)cc1Cl`: the ΔTm in assay [1] came out at 2.51 °C.
